Experimental data taken from US20130149721A1, “Methods for Inhibiting Amyloid Precursor Protein and Beta-Amyloid Production and Accumulation” (WISCONSIN ALUMNI RESEARCH FOUNDATION, priority 2008, published 2013).

Key:
[1] = tested on: audiogenic seizures in mice; assay: Audiogenic seizure (AGS) testing; type: in vivo, mouse; details: MPEP 30 mg/kg I.P. 30 min prior to AGS testing
Procedure: Audiogenic Seizure Testing, Data Analyses and mGluR5 Blockade: All mouse strains were tested at postnatal day 21, the peak of AGS sensitivity. The experimental apparatus consisted of a clear, Plexiglas box (13″L×8″W×7″H) with the sound source located inside the box (LOUD KEY™ jogger's alarm). Mice were weighed and then placed individually into the center of the chamber and exposed to a siren that generated noise at 118 dB for 5 min. Loud, acoustic stimulation causes wild running (WR) behavior within 20-30 sec followed by erratic leaping, clonic convulsions and tonic hind limb extension by 40-50 sec followed by respiratory arrest and death (Chen, et al., 2001, Neuroscience 103, 1043-1050). The animals were scored for the latency time of wild running (WR), AGS and respiratory arrest (death). […] MPEP was a kind gift from FRAXA Research Foundation (Newburyport, Mass.) and was dissolved at 1 mg/mL in DPBS before I.P. injection at 30 mg/kg body weight 30 min prior to AGS testing.
Tg2576 mice over-expressed hAPPSwe and hAβ. FRAXAD were a cross between fmr-1^−/− (Fragile X mouse model) and Tg2576 (AD mouse model) and generated 23% more brain hAβ1-40 than Tg2576 (Westmark et al., 2008, Int J Clin Exp Pathol 1: 157-168). […] It was determined whether hAPPSwe/hAβ over-expression in an fmr-1 null background (FRAXAD mice) increased AGS. C57BL/6 fmr-1^−/− mice were sensitive to AGS from 15-47 days with a peak at 21 days (Yan et al., 2005, Neuropharmacology 49: 1053-1066). AGS in WT, fmr-1^−/−, Tg2576 and FRAXAD mice was examined at 21 days of age. Mice were transferred to a Plexiglas box (13″L×8″W×7″H) shortly after weaning and exposed to high pitch siren (118 dB) from a personal body alarm (LOUD KEY™).
A common denominator between Fragile X Syndrome (FXS), Downs Syndrome (DS), and Alzheimer's Disease (AD) is the over-expression of amyloid precursor protein (APP) and/or beta-amyloid (Aβ). […] Additionally, methods that decreased APP/Aβ levels were expected to reduce AGS. Accordingly, AGS rates were examined in AD, FXS and DS mouse models. AGS rates for FRAXAD, Tg2576, and fmr-1^−/−, Ts65Dn were described above in Example 6. Here, the ability of 2-methyl-6-(phenylethynyl)pyridine hydrochloride (MPEP) to attenuate AGS was assessed. Tg2576 and FRAXAD mice were treated with MPEP for 30 min prior to AGS stimulation to assess the effect of mGluR5 blockade on seizure propensity in AD mouse models.

[2] = biological target: mGluR5 (Homo sapiens, UniProt P41594); details: shared allosteric modulatory site; cited from earlier work
mGluR5, sequence (P41594 21-1212): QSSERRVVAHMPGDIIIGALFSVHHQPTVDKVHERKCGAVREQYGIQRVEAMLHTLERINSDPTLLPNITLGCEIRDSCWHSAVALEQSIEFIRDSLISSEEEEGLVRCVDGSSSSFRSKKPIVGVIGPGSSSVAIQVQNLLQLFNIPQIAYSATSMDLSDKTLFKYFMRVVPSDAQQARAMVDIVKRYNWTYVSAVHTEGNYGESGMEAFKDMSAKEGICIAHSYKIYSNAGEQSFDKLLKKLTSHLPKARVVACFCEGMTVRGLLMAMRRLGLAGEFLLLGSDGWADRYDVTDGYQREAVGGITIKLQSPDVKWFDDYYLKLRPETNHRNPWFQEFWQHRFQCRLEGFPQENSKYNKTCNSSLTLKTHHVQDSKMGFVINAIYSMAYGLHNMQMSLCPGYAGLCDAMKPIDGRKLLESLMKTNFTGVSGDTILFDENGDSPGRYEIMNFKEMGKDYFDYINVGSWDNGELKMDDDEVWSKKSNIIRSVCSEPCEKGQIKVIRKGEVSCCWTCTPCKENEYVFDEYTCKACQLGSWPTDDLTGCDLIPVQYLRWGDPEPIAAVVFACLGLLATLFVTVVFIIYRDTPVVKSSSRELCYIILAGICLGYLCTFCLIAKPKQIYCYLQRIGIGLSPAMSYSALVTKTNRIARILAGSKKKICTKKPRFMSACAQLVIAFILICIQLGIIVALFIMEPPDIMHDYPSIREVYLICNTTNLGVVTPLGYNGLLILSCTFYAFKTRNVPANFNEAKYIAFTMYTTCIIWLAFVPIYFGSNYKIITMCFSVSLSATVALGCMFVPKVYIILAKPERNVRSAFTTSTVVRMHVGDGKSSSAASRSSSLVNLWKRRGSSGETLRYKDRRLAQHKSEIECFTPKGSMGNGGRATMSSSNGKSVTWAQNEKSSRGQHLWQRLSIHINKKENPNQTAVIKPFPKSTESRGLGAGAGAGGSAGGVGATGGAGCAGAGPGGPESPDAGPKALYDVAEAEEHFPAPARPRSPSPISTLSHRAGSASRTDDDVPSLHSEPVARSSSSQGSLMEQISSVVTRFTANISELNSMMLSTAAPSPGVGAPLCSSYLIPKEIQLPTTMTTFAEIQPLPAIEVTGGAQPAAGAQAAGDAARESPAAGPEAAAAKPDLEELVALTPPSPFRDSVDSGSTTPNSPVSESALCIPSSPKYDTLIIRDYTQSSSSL

[3] = tested on: FMRP-associated APP mRNA in WT SN; assay: FMRP immunoprecipitation and RTqPCR of associated APP mRNA in synaptoneurosomes; type: cell-based, mouse
Procedure: SNs were prepared from WT and Fmr-1 KO mouse cortical tissue (Dunkley et al., 1988, Brain Res 441: 59-71; Bagni et al., 2000, J Neuorsci 20: RC76). Briefly, mouse pups aged 14-17 d were killed by carbon dioxide asphyxiation followed by removal of the brain cortices. The cortices were washed in ice-cold gradient medium (GM buffer: 0.25 M sucrose, 5 mM Tris (pH 7.5), and 0.1 mM EDTA), transferred to a glass dounce homogenizer containing ice-cold GM buffer, and gently homogenized with five strokes of the loose pestle followed by five strokes of the tight pestle. The homogenate was spun at 1000 g for 10 min at 4° C. in round-bottom tubes to pellet cellular debris and nuclei. […] The protein concentration of the SNs was determined by Bradford assay and ranged from 200-500 ng/μl. […]
SN lysates were precleared with protein A magnetic beads and immunoprecipitated with 10 μl RNasin, 10 μg 7G1-1 antiFMRP antibody (or in the absence of antibody as a control), and 100 μl packed fresh protein A magnetic beads for 3 h at 4° C. […] The final pellet was suspended in DEPC-treated water, solubilized 10 min at 60° C., and reverse transcribed with Qiagen Omniscript and random nonamer primer (60 min at 37° C., 5 min at 93° C.). cDNA produced in this reaction was diluted 5-fold and analyzed for APP by qPCR as described immediately above. […]

Row | Structure (SMILES) | % Death ([1]; FRAXAD mice) [%] | % WR ([1]; FRAXAD mice) [%] | % Death ([1]; Fmr-1 KO mice) [%] | % WR ([1]; Fmr-1 KO mice) [%] | % Death ([1]; Tg2576 mice) [%] | % WR ([1]; Tg2576 mice) [%] | % AGS ([1]; WT mice) [%] | % Death ([1]; WT mice) [%] | % WR ([1]; WT mice) [%] | mGluR5 antagonist character [2] | time to loss of APP mRNA-FMRP complex ([3]; WT SN contacted with DHPG) [min] | difference in FMRP-associated APP mRNA ([3]; WT SN, untreated vs 100 μM DHPG, 60 min) [fold]
1 | Cc1cccc(C#Cc2ccccc2)n1 [MPEP, 2-methyl-6-(phenylethynyl)pyridine] | 7 | 60 | 0 | 14 | 0 | 0 | 0 | 0 | 0 | potent and highly selective noncompetitive antagonists |  | 
2 | N[C@@H](C(=O)O)c1cc(O)cc(O)c1 (racemic) [DHPG, (R,S)-3,5-dihydroxyphenylglycine] |  |  |  |  |  |  |  |  |  |  | ≤ 5 | > 60
